{"source": "paper PMC7508583", "about": "“Discovery and Preclinical Development of Antigiardiasis Fumagillol Derivatives” (Antimicrobial Agents and Chemotherapy, 2020)", "key": {"[1]": {"test_system": "G. lamblia GS trophozoites", "test": "Trophozoite viability MLC determination", "assay_type": "cell-based, Giardia lamblia", "experimental": "The inhibition of metabolism enables the organism to resume proliferation once treatment is completed. To discriminate between the lethality of the promising compounds and the induction of metabolic inactivity by the promising compounds, the minimum lethal concentration (MLC) values were determined by treating the trophozoites with the test compounds for 3 days and transferring the resulting cultures to medium lacking the compounds for 3 days of proliferation. This assay was described previously for G. lamblia ([18]) and was adapted to E. histolytica in the current study.\nTrophozoites of G. lamblia isolates WB and GS were grown anaerobically in borosilicate glass screw-cap culture tubes (Fisher Scientific) at pH 7.0 in Keister’s modified TYI-S-33 medium (ATCC). The medium was supplemented with 10% heat-inactivated bovine serum (Sigma-Aldrich) and 0.05% bovine bile (Sigma-Aldrich). To attain low-oxygen-tension conditions, the tubes were filled to 85% to 90% of their total volume capacity and incubated without shaking at 37°C. Subcultures (2 × 10^5 trophozoites per tube) were made three times a week. Detachment of trophozoites for inoculation was achieved by chilling the cultures on ice for 20 min. Culturing and detachment of metronidazole-resistant G. lamblia assemblage A 713M3 and assemblage B 1279-M1 trophozoites followed the same protocol, except that the growth medium was supplemented with metronidazole, with the concentration gradually being increased to 10 μM.\nCompounds were prepared by 2-fold serial dilutions in growth medium containing 0.5% DMSO (diluted from a starting concentration of 1 μM to 12 concentrations for all compounds except metronidazole, fumagillol, and TNP-470, which were diluted from 100 μM), and 100 μl/well was transferred in duplicate to the 96-well culture plate. Ten microliters of G. lamblia trophozoites was plated at a density of 10,000 cells/well. The plates were incubated under anaerobic condition in a BD GasPak EZ container system (BD Diagnostics) at 37°C for 72 h and surveyed visually under a microscope to check trophozoite survival, mobility, and attachment. […] The tubes were incubated under anaerobic condition for 3 days at 37°C and checked under a microscope. The MLC value was the concentration in the tube with the lowest compound concentration without any live organism."}, "[2]": {"test": "Plasma pharmacokinetics in mice", "assay_type": "in vivo, C57BL/6 female mice", "experimental": "The mean plasma concentration-time profiles for intravenous (i.v.) and per os (p.o.) administration in C57BL/6 female mice are shown in Fig. 6A. […] In contrast, at the earliest time point (15 min) following oral administration of a 6.6-mg/kg bolus, the plasma concentration reached a maximum of ∼92 ng/ml and then decreased gradually and remained detectable for 8 h.\nPlasma intravenous (i.v.) and per os (p.o.) pharmacokinetic studies were performed in C57BL/6 female mice, using two groups of three mice each. […] The second group of mice received a 6.6-mg/kg dose orally; this dose matched the therapeutic dose that cured giardiasis with no remaining proliferating trophozoites. Blood samples were withdrawn at 5, 15, and 30 min and 1, 2, 4, 8, and 24 h after administration for the i.v. treated mouse group and at the same time intervals but beginning at 15 min for the p.o. treated mouse group. The samples were extracted with 60% water-diluted acetonitrile and were frozen at −20°C until analysis.\nBlank and test compound-containing samples were thawed, vortexed to ensure complete mixing of the contents, and centrifuged at 4,000 rpm at 20°C for 10 min. The supernatants were transferred into autoinjector vials. The vials were loaded, and 30-μl sample volumes were injected onto an API 4000 LC-MS/MS system. The Agilent XDB C18 column was used for the liquid chromatographic step at a flow rate of 0.6 ml/min. The mass spectrometer was operated in the electrospray ionization-positive mode. Curcumin served as an internal standard. The chromatograms were evaluated using Analyst (version 1.6.3) software."}, "[3]": {"test": "Single-dose acute toxicity (MTD) and histopathology", "conditions": "in vivo", "experimental": "The tissues of three surviving mice were analyzed along with the tissues of three animals treated with the vehicle alone. […] Based on these findings, the maximum tolerated dose (MTD) value was determined to be 1,500 mg/kg.\nThe maximum tolerated dose (MTD) determination was performed using 8- to 10-week-old C57BL/6 female mice in five groups of 6 animals each. The mice were acclimated to the study room for a week. Animals were randomized by body weight prior to being assigned to dosage groups at the outset of the study. […] Following an up-down dosing strategy, the clinical signs and body weights of the animals in a study group were evaluated daily for 5 days before escalating or reducing the dose administered to the next group, as appropriate. The clinical observations included posture, vocalization, ease of handling, lacrimation, chromodacryorrhea, salivation, coat appearance, rearing frequency, transfer arousal, piloerection, motor movements, tail pinch, and diarrhea.\nThe histopathology examination included 3 mice that survived treatment with the 2,000-mg/kg dose and 3 mice that received the vehicle alone. Brain, heart, lung, spleen, and liver tissues were examined. Formalin-fixed tissues were embedded in paraffin to produce 4-μm-thick sections. The paraffin wax was removed, and the tissues were stained with Gill’s hematoxylin for 5 to 10 min. The samples were rinsed in tap water, followed by ammonia water, and stained with eosin Y for 5 min. The hematoxylin-eosin-stained tissues were dehydrated and mounted for light microscopic examination."}, "[4]": {"test_system": "G. lamblia WB trophozoites", "parameters": "method as in PMID 25267663", "conditions": "proliferation assay; cited from earlier work"}, "[5]": {"parameters": "method as in earlier work", "conditions": "degraded from 98% purity; Sanofi; cited from earlier work"}, "[6]": {"test": "Accelerated temperature/humidity degradation test", "assay_type": "physicochemical", "conditions": "day 28, 37°C; for Mean ± SE degradation at 4 wk and 37°C, 75% humidity: 75% relative humidity; for Mean ± SE degradation at 4 wk and 37°C, uncontrolled humidity: uncontrolled relative humidity", "experimental": "Accelerated temperature tests were performed at 37°C and under 75% relative humidity or laboratory uncontrolled relative humidity, comparing compounds 3 and 9 to fumagillin. Sanofi reported previously that fumagillin degraded from 98% to 85% purity when stored at 40°C for 2 weeks at ambient humidity ([42]).\nFor accelerated temperature degradation tests at 75% relative humidity and at laboratory uncontrolled relative humidity, fumagillin and compounds 3 and 9 were incubated at 37°C under either controlled or uncontrolled humidity, and the samples were analyzed by HPLC every week for 4 weeks. Measurements were made in duplicate. Area-under-the-curve values were calculated to derive the percentage of compound remaining. For pH degradation, the compounds were dissolved in DMSO and mixed with pH 3.0 buffer. The samples were incubated at 25°C for up to 48 h. Samples were analyzed by HPLC every 2 h for the first 8 h and then after 24 and 48 h."}, "[7]": {"test_system": "G. lamblia GS trophozoites", "parameters": "method as in PMID 25267663", "conditions": "proliferation assay; cited from earlier work"}}}
{"compound": "COC1C(OC(=O)NC(=O)CN2CCOCC2)CCC2(CO2)C1C1(C)OC1CC=C(C)C", "note": "(centres unmarked) [Compound 3]", "values": [{"measurement": "fold improved MLCs compared with the MLC of fumagillin", "setting": "[1]", "result": "~100", "unit": "fold"}]}
{"compound": "CO[C@@H]1[C@H](OC(=O)Nc2ccc(C(=O)O)cc2)CC[C@]2(CO2)[C@H]1[C@@]1(C)O[C@@H]1CC=C(C)C", "note": "[Compound 9, 4-(((((3R,4S,5S,6R)-5-methoxy-4-((2R,3R)-2-methyl-3-(3-methylbut-2-en-1-yl)oxiran-2-yl)-1-oxaspiro[2.5]octan-6-yl)oxy)carbonyl)amino)benzoic acid]", "values": [{"measurement": "time plasma concentration remained detectable", "setting": "[2]; 6.6 mg/kg oral bolus", "result": 8, "unit": "h"}, {"measurement": "maximum plasma concentration", "setting": "[2]; 6.6 mg/kg oral bolus, C57BL/6 female mice", "result": "~92", "unit": "ng/mL"}, {"measurement": "time point of maximum plasma concentration", "setting": "[2]; 6.6 mg/kg oral bolus, earliest time point", "result": 15, "unit": "min"}, {"measurement": "half-life", "setting": "[2]; mouse, iv, 2 mg/kg i.v., plasma, C57BL/6 female mice, read-out: calculated half-life", "result": 7.2, "unit": "min"}, {"measurement": "concentration at 5 min", "setting": "[2]; mouse, plasma, intravenous, 2 mg/kg i.v. bolus, C57BL/6 female mice, read-out: plasma concentration at the 5-min time point", "result": "~136", "unit": "ng/mL"}, {"measurement": "concentration at 1 h", "setting": "[2]; mouse, plasma, intravenous, 2 mg/kg i.v. bolus, C57BL/6 female mice, read-out: plasma concentration by 1 h after dosing (below limit of quantification)", "result": "< 5", "unit": "ng/mL"}, {"measurement": "LD50 at 5 days", "setting": "[3]; female, C57BL/6, mouse, po", "result": "> 2000", "unit": "mg/kg"}, {"measurement": "MTD at 5 days", "setting": "[3]; female, C57BL/6, mouse, po", "result": 1500, "unit": "mg/kg"}, {"measurement": "histopathology of liver, heart, brain, lung, spleen", "setting": "[3]; mouse", "result": "normal tissue with no significant changes compared with the control tissues"}, {"measurement": "mortality", "setting": "[3]; mouse", "result": "two mice died unexpectedly"}, {"measurement": "reduced body weight on day 3", "setting": "[3]; mouse", "result": "~15", "unit": "%"}, {"measurement": "weight change and clinical signs", "setting": "[3]; mouse", "result": "no weight change and no negative clinical signs"}]}
{"compound": "CO[C@@H]1[C@H](OC(=O)/C=C/C=C/C=C/C=C/C(=O)O)CC[C@]2(CO2)[C@H]1[C@@]1(C)O[C@@H]1CC=C(C)C", "note": "[Fumagillin, reference compound]", "values": [{"measurement": "MLC, WB strain", "setting": "[4]", "result": 0.7, "unit": "µM"}, {"measurement": "purity after storage at 40°C for 2 weeks at ambient humidity", "setting": "[5]", "result": 85, "unit": "%"}, {"measurement": "Mean ± SE degradation at 4 wk and 37°C, 75% humidity", "setting": "[6]", "result": "30.37 ± 1.12", "unit": "%"}, {"measurement": "Mean ± SE degradation at 4 wk and 37°C, 75% humidity", "setting": "[6]; listed as fumagillin", "result": 30.37, "unit": "%"}, {"measurement": "Mean ± SE degradation at 4 wk and 37°C, uncontrolled humidity", "setting": "[6]", "result": "20.22 ± 3.90", "unit": "%"}, {"measurement": "Mean ± SE degradation at 4 wk and 37°C, uncontrolled humidity", "setting": "[6]; listed as fumagillin", "result": 20.22, "unit": "%"}, {"measurement": "MLC, GS strain", "setting": "[7]", "result": 0.26, "unit": "µM"}]}
